Data on 21 compounds can be found in ChEMBL document CHEMBL1137221, “Validation of model of cytochrome P450 2D6: an in silico tool for predicting metabolism and inhibition” (J Med Chem, 2004).

SMILES strings stand for the structures.

By Ki is commonly meant a dissociation constant, usually derived from enzyme kinetics or from competition with a known ligand. The IC50 is the concentration needed to halve the response being measured.

T1 sequence (P10635 whole entry): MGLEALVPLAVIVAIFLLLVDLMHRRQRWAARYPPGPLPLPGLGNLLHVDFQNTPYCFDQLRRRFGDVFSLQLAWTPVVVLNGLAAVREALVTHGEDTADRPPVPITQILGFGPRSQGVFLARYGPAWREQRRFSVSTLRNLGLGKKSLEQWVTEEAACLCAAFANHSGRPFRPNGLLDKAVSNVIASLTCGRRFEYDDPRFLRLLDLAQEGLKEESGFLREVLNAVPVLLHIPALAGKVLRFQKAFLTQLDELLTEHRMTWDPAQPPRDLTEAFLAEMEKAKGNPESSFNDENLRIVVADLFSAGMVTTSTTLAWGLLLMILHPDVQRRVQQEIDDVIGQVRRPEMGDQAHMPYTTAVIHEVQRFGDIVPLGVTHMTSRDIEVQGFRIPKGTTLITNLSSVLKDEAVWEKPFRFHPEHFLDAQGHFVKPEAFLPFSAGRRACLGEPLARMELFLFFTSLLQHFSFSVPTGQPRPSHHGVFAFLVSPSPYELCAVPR

The first assay has as its target T1, Cytochrome P450 2D6 (Homo sapiens, UniProt P10635). The assay can be described thus: Binding affinity for cytochrome P450 2D6. Format: ADME.
On to `C=C[C@H]1C[N@@]2CC[C@H]1C[C@@H]2[C@@H](O)c1ccnc2ccccc12` [CINCHONINE], for which the inhibitory constant (Ki) was 21 µM.

The target in the next assay is T1, Cytochrome P450 2D6. The assay can be described thus: Inhibitory concentration against cytochrome P450 2D6.
As to `CNCCC=C1c2ccccc2CCc2ccccc21` [NORTRIPTYLINE], the midpoint of inhibition, the IC50, lay at 2.6 µM. The same measure, in the same setting: as for `O=C(O)c1ccc(CNCc2ccccc2)cc1`, the figure is 570 µM. Still for that read-out and setting: as for `O=CC(NC(=O)N(CCCl)N=O)C(O)C(O)C(O)CO` (configuration not stated), the figure is 2020 µM; as for `CC(C)NC(=O)OCc1c(COC(=O)NC(C)C)c(-c2ccc(Cl)c(Cl)c2)n2c1CCC2`, 11 µM. The same measure, in the same setting: to `NCC(O)CSCc1ccc(Cl)cc1` (configuration not stated) belongs 8 µM; to `CN(C)CCN1C(=O)c2cccc3cc(N)cc(c23)C1=O` [AMONAFIDE], 39.6 µM. `NS(=O)(=O)OCCCCCCCOS(N)(=O)=O` had an IC50 of 699 µM. Still for that read-out and setting: as for `COc1ccc(S(=O)(=O)N/N=C/C(=O)O)cc1`, the figure is 288 µM; as for `O=C1CC2(CCCCC2)C(=O)C1CC(Cl)CCl` (configuration not stated), 310 µM. Compound `COC(=O)C12OC[C@]34[C@H]([C@@H](O)[C@@H]1O)[C@@]1(C)CC(=O)C(O)=C(C)[C@@H]1C[C@H]3OC(=O)[C@H](OC(=O)/C=C(\C)C(C)C)[C@@H]24` (single isomer, unassigned) [BRUCEANTIN] came in with an IC50 of 514 µM. In turn, `COc1ccc2c(c1[N+](=O)[O-])CC[C@@H]1[C@@H]2CC[C@]2(C)C(=O)CC[C@@H]12` displayed an IC50 of 196 µM.

As for `CCN(CC)CCNc1ccc(CO)c2sc3ccccc3c(=O)c12` [HYCANTHONE], the IC50 was 1.5 µM. The same measure, in the same setting: to `CC(=O)N(C)c1ccc(Nc2cc(C)nc3ccc4[nH]cnc4c23)cc1` [ACODAZOLE] belongs 18.1 µM. For `C=C[C@H]1C[N@@]2CC[C@H]1C[C@@H]2[C@@H](O)c1ccnc2ccccc12` [CINCHONINE], the IC50 worked out at 1.8 µM. Same read-out and setting: as for `O=C(Cn1ccnc1[N+](=O)[O-])N(CCO)CCO`, the figure is 1020 µM; as for `CN(C)CCOc1ccc(/C(=C/c2ccccc2)c2ccccc2)cc1`, 7.2 µM; as for `Clc1ccc(Cl)c(SCCCN2CCNCC2)c1`, 2.1 µM.

The compound `Nc1ccc2c(c1)CN1C(=O)c3ccccc3C1=N2` [DANIQUIDONE] returned a half-inhibitory concentration (IC50) of 48 µM. On the same count and under the same terms, as for `NCCCc1c(-c2ccccc2)nc(N)[nH]c1=O`, the figure is 234 µM; as for `COC12[C@H](COC(N)=O)C3=C(C(O)=C(C)C(=N)C3=O)N1C[C@H]1[C@@H]2N1C` (some centres not stated), 94.3 µM; as for `O=C(O)CCCc1ccc(N(CCCl)CCCl)cc1` [CHLORAMBUCIL], 65.1 µM.
